Values after ≈ are worked out from the molar mass of the structure shown. Read-outs that look alike come from different tables or passages of the source.
How the values were obtained:
[1] = test system: Human melanoma cell line A375; experiment: Anti-proliferative activity (Alamar Blue); format: cell-based; conditions: A-375, 96 h, A375 cells, 4 days incubation
Procedure: The anti-proliferative activities of the compound of the invention was determined by measuring the ability of the compound of formula (1) to inhibit growth in the Human melanoma cell line A375.
Cell proliferation was determined by measuring the conversion of rezasurin (Alamar Blue) to resorufin in reponse to mitochondrial activity (Nociari, M. M, Shalev, A., Benias, P., Russo, C. Journal of Immunological Methods 1998, 213, 157-167). A375 cells (American Type Culture Collection, Teddington, UK) were grown in Dulbecco's Modified Eagle Medium+10% FBS. Each well of a black 96-well flat-bottomed plate was seeded with 2×10^3 cells in 200 μl of complete culture medium one day before the compound treatment. Cells were incubated with compound in 0.1% (v/v) dimethyl sulfoxide (DMSO) for 4 days before addition of 20 μl Alamar blue. After a further 6 h incubation at 37° C. the plate was read on a Spectramax Gemini reader (Molecular Devices; excitation 535 nm, emission 590 nm). GI50 values were calculated using a sigmoidal dose response equation (Prism GraphPad software, La Jolla, Calif., USA).

[2] = Solubility determinations in non-aqueous solvents; format: physicochemical; conditions: for solubility at 72 h: organic solvent or mixture, thermodynamic from solid, read-out: Estimated maximum solubilities (mg/ml), at 18 to 23° C.
Procedure: Form B of Compound (1), prepared as described in Example 3, was charged to the appropriate solvent (2 ml) at intervals of approximately 1 hour. The solutions were purposefully saturated and allowed to stir over 72 h at 18 to 23° C. After this time, the suspensions were centrifuged, their supernatants were sampled, diluted accordingly and the peak areas of the corresponding analytes were measured by HPLC and compared against those of the standard calibrants. The approximate solubilities were calculated and solubilities were physically checked on an anhydrous solvent free basis to confirm that the results were consistent.
The saturated solutions were centrifuged and 100 μl of the clarified supernatant was added to 250 ml volumetric (ethanol) or 100 ml volumetrics (remainder) and made to volume with sample diluent. The diluted samples were then analysed by HPLC peak area and the estimated maximum solubilities were calculated and are reported in the table below.
To confirm the estimated solubilities were of the right order of magnitude solutions were prepared up to the estimated maximum measured concentrations and the mixtures were stirred overnight under the same conditions to confirm dissolution.

[3] = Solubility determinations in purified water and buffers; format: physicochemical; conditions: for Measured solubilities (mg/ml), bound / Measured solubilities (mg/ml), value in brackets / solubility at 24 h: 18-23° C., t = 24 h; for solubility at 24 h: 18 °C, read-out: Measured solubilities (mg/ml), bound
Procedure: The solubilities of crystalline form B and the amorphous form of the compound of formula (1) were determined in purified water and buffers at the same concentration up to 24 h stir time at 18 to 23° C.
The samples of the compound of formula (1) (50 mg) were each suspended in purified water (2 mL) or the appropriate buffer and stirred at ambient temperature (18-23° C.) for 20 to 24 h. After this time the slurries were centrifuged, diluted if appropriate by HPLC sample diluent (acetonitrile/water, 1/1, v/v) and analysed by HPLC peak area. The measured values were compared against a relevant calibration curve for the compound of formula (1). The approximate solubilities were calculated and compensation factors were applied for the appropriate dilution factors and % w/w assays. The dilution factor ensured that the peak area values fell within the desired calibration curve ranges.
The plug of solid that remained in the centrifuge tube was dried in vacuum oven and analysed by XRPD.
The preparations of the buffers used in the study are described below:
pH 1.2—Mix 50 mL of 0.2M potassium chloride solution with 85 mL of 0.2M hydrochloric acid solution.
pH 2—Mix 50 mL of 0.2M potassium chloride solution with 13 mL of 0.2M hydrochloric acid solution.
pH 3—Mix 100 mL of 0.1M potassium hydrogen phthalate with 44.6 mL of 0.1M hydrochloric acid solution.
pH 4—Mix 100 mL of 0.1M potassium hydrogen phthalate with 0.2 mL of 0.1M hydrochloric acid solution.
pH 5—Mix 100 mL of 0.1M potassium hydrogen phthalate with 45.2 mL of 0.1M sodium hydroxide solution.
pH 6—Mix 100 mL of 0.1M potassium dihydrogen orthophosphate with 11.2 mL of 0.1M sodium hydroxide solution.
pH 7—Mix 100 mL of 0.1M potassium dihydrogen orthophosphate with 58.2 mL of 0.1M sodium hydroxide solution.
pH 8—Mix 100 mL of 0.1M potassium dihydrogen orthophosphate with 93.4 mL of 0.1M sodium hydroxide solution.

For `COc1cc(F)cc([C@@H](CO)NC(=O)[C@@H](C)N2Cc3ccc(-c4nc(NC5CCOCC5)ncc4Cl)cc3C2=O)c1` [compound of formula (1), (2R)-2-(6-{5-chloro-2-[(oxan-4-yl)amino]pyrimidin-4-yl}-1-oxo-2,3-dihydro-1H-isoindol-2-yl)-N-[(1S)-1-(3-fluoro-5-methoxyphenyl)-2-hydroxyethyl]propanamide], the GI50 [1] was 3.4 nM and the “Solubility in ethanol, PEG 400 and propylene glycol compared with water” value ([2]; ethanol, PEG 400 and propylene glycol than in water) was “significantly greater solubility”.
With `COc1cc(F)cc([C@@H](CO)NC(=O)[C@@H](C)N2Cc3ccc(-c4nc(NC5CCOCC5)ncc4Cl)cc3C2=O)c1` [Crystalline Form B of the Compound of Formula (1)] [(2R)-2-(6-{5-chloro-2-[(oxan-4-yl)amino]pyrimidin-4-yl}-1-oxo-2,3-dihydro-1H-isoindol-2-yl)-N-[(1S)-1-(3-fluoro-5-methoxyphenyl)-2-hydroxyethyl]propanamide] the “Measured solubilities (mg/ml), bound” value ([3]; Purified water) was <0.1 mg/mL, the “Measured solubilities (mg/ml), bound” value ([3]; pH 1.2 Buffer) was <0.1 mg/mL and the “Measured solubilities (mg/ml), bound” value ([3]; pH 2 Buffer) was <0.1 mg/mL. The “Measured solubilities (mg/ml), value in brackets” value ([3]; pH 2 Buffer) was “(0.0034 mg/ml”, the “Measured solubilities (mg/ml), bound” value ([3]; pH 3 Buffer) was <0.1 mg/mL and the “Measured solubilities (mg/ml), value in brackets” value ([3]; pH 3 Buffer) was “(0.0045 mg/ml”. For the same molecule, the “Measured solubilities (mg/ml), bound” value ([3]; pH 4 Buffer) was <0.1 mg/mL, the “Measured solubilities (mg/ml), value in brackets” value ([3]; pH 4 Buffer) was “(0.0049 mg/ml” and the “Measured solubilities (mg/ml), bound” value ([3]; pH 5 Buffer) was <0.1 mg/mL. The “Measured solubilities (mg/ml), value in brackets” value ([3]; pH 5 Buffer) was “(0.0031 mg/ml”, the “Measured solubilities (mg/ml), bound” value ([3]; pH 6 Buffer) was <0.1 mg/mL and the “Measured solubilities (mg/ml), value in brackets” value ([3]; pH 6 Buffer) was “(0.0027 mg/ml”. For the same molecule, the “Measured solubilities (mg/ml), bound” value ([3]; pH 7 Buffer) was <0.1 mg/mL, the “Measured solubilities (mg/ml), value in brackets” value ([3]; pH 7 Buffer) was “(0.0017 mg/ml” and the “Measured solubilities (mg/ml), bound” value ([3]; pH 8 Buffer) was <0.1 mg/mL. The “Measured solubilities (mg/ml), value in brackets” value ([3]; pH 8 Buffer) was “(0.0020 mg/ml”.
For `COc1cc(F)cc([C@@H](CO)NC(=O)[C@@H](C)N2Cc3ccc(-c4nc(NC5CCOCC5)ncc4Cl)cc3C2=O)c1` [(2R)-2-(6-{5-chloro-2-[(oxan-4-yl)amino]pyrimidin-4-yl}-1-oxo-2,3-dihydro-1H-isoindol-2-yl)-N-[(1S)-1-(3-fluoro-5-methoxyphenyl)-2-hydroxyethyl]propanamide], the solubility ([3]; buffers at pH 1.2 to 8.0, 20.5 °C, pH 1.2, aqueous buffer, thermodynamic from solid, buffers at pH 1.2 to 8.0, read-out: Solubility in buffers (conclusion: practically insoluble)) was < 100 µg/mL, the solubility at 24 h ([3]; pH 1.2 buffer, pH 1.2, simulated gastric fluid, thermodynamic from solid, pH 1.2 Buffer) was ≥ 0.1 mg/mL and the solubility at 24 h ([3]; pH 2 buffer, pH 2, simulated gastric fluid, thermodynamic from solid, pH 2 Buffer) was < 0.1 mg/mL. For the same molecule, the solubility at 24 h ([3]; pH 3 buffer, pH 3, aqueous buffer, thermodynamic from solid, pH 3 Buffer) was < 0.1 mg/mL, the solubility at 24 h ([3]; pH 4 buffer, pH 4, aqueous buffer, thermodynamic from solid, pH 4 Buffer) was < 0.1 mg/mL and the solubility at 24 h ([3]; pH 5 buffer, pH 5, aqueous buffer, thermodynamic from solid, pH 5 Buffer) was < 0.1 mg/mL. For the same molecule, the solubility at 24 h ([3]; pH 6 buffer, pH 6, aqueous buffer, thermodynamic from solid, pH 6 Buffer) was < 0.1 mg/mL, the solubility at 24 h ([3]; pH 7 buffer, pH 7, aqueous buffer, thermodynamic from solid, pH 7 Buffer) was < 0.1 mg/mL and the solubility at 24 h ([3]; pH 8 buffer, pH 8, aqueous buffer, thermodynamic from solid, pH 8 Buffer) was < 0.1 mg/mL. The solubility at 24 h ([3]; purified water, water, thermodynamic from solid, Purified water) was < 0.1 mg/mL, the solubility at 72 h ([2]; PEG 400, 18 °C) was 229 mg/mL (≈ 392000 µM) and the solubility at 72 h ([2]; ethanol, 18 °C) was 337 mg/mL (≈ 577000 µM). The solubility at 72 h ([2]; glycerol, 18 °C) was 5 mg/mL (≈ 8560 µM) and the solubility at 72 h ([2]; propylene glycol, 18 °C) was 289 mg/mL (≈ 495000 µM).
For `COc1cc(F)cc([C@@H](CO)NC(=O)[C@@H](C)N2Cc3ccc(-c4nc(NC5CCOCC5)ncc4Cl)cc3C2=O)c1` [Amorphous Form of the Compound of Formula (1)] [(2R)-2-(6-{5-chloro-2-[(oxan-4-yl)amino]pyrimidin-4-yl}-1-oxo-2,3-dihydro-1H-isoindol-2-yl)-N-[(1S)-1-(3-fluoro-5-methoxyphenyl)-2-hydroxyethyl]propanamide], the “Measured solubilities (mg/ml), value in brackets” value ([3]; Purified water) was “(0.0234 mg/ml”, the “Measured solubilities (mg/ml), value in brackets” value ([3]; pH 1.2 Buffer) was “(0.1249 mg/ml” and the “Measured solubilities (mg/ml), value in brackets” value ([3]; pH 2 Buffer) was “(0.0226 mg/ml”. The “Measured solubilities (mg/ml), value in brackets” value ([3]; pH 3 Buffer) was “(0.0257 mg/ml”, the “Measured solubilities (mg/ml), value in brackets” value ([3]; pH 4 Buffer) was “(0.0418 mg/ml” and the “Measured solubilities (mg/ml), value in brackets” value ([3]; pH 5 Buffer) was “(0.0268 mg/ml”. For the same molecule, the “Measured solubilities (mg/ml), value in brackets” value ([3]; pH 6 Buffer) was “(0.0149 mg/ml”, the “Measured solubilities (mg/ml), value in brackets” value ([3]; pH 7 Buffer) was “(0.0136 mg/ml” and the “Measured solubilities (mg/ml), value in brackets” value ([3]; pH 8 Buffer) was “(0.0138 mg/ml”.
